From US8754079B2, “Cycloalkyl containing thienopyrimidines for pharmaceutical compositions” (Boehringer Ingelheim International GmbH, priority 2010, dated 2014)

biological target: T1, MNK2 (Homo sapiens, UniProt Q9HBH9); experiment: Mnk2a in vitro kinase assay (indirect fluorescence polarization); assay type: biochemical; conditions: pre-activated GST-Mnk2a 2.5 nM, 20 μM ATP, 30 μM substrate peptide
T1 construct: the open reading frames of human Mnk1 and Mnk2a were amplified from cDNA; made in house; host or cells: E. coli BL21
T1 sequence (Q9HBH9 whole entry): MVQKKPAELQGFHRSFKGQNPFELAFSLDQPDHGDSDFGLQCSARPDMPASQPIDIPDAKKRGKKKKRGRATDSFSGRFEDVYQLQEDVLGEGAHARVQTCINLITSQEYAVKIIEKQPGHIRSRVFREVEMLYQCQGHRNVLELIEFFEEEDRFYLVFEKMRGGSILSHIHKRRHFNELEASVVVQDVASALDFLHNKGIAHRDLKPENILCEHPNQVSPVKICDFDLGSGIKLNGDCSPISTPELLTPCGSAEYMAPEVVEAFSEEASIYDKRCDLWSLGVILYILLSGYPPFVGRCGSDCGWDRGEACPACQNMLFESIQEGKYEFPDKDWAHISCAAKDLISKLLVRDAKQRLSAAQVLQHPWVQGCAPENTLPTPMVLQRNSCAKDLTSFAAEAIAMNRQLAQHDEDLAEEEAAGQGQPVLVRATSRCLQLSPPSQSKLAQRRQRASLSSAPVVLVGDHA
Procedure: Inhibitory potency of compounds against Mnk1, Mnk2a and other kinases was assessed with assays based on a format known to those skilled in the art as the indirect (competitive) fluorescence polarization. The assay detection system comprises a small fluorophore-labeled phospho-peptide (termed ligand) bound to a phospho-specific antibody. The product generated by the kinase reaction competes with the ligand for antibody binding. Based on the larger molecular volume of the bound ligand, which results in a lower rotation rate in solution, its emitted light has a higher degree of polarization than the one from the free ligand.
Example 2a. Mnk1 and Mnk2a in vitro kinase assay
As a source of enzyme, human Mnk1 and human Mnk2a were expressed as GST fusion proteins in E. coli, purified to >80% homogeneity by glutathione affinity chromatography and activated in vitro with pre-activated ERK2. In brief, the open reading frames of human Mnk1 and Mnk2a were amplified from cDNA using the forward/reverse primer pairs
(utilized restriction sites underlined), respectively, and cloned into the BamHI and SalI sites of the vector pGEX-4T1 (Amersham, Sweden, cat. no. 27-4580-01). These constructs allow prokaryotic expression of Mnk1 or Mnk2a as fusion protein with a N-terminal glutathione S-transferase (GST) tag, referred to as GST-Mnk1 or GSTMnk2a. The following expression and purification procedure was identical for GSTMnk1 and GST-Mnk2a, referring in general to GST-Mnk, when not distinguishing between the two isoforms. Expression of GST-Mnk was in E. coli BL21 (Merck Biosciences, Germany, cat. no. 69449). Cells were grown in LB-Bouillon (Merck, Germany, cat. no. 1.10285) supplemented with 100 μg/ml ampicillin (Sigma, Germany, cat. no. A9518) at 37° C. When the culture had reached a density corresponding to an A600 of 0.8, an equal volume of ice cold LB/ampicillin was added, the culture transferred to 25° C. and induced for 4 h with 1 mM isopropyl thiogalactoside (IPTG, Roth, Germany, cat. no. 2316.4). Cells harvested by centrifugation were resuspended in 10 ml lysis buffer (50 mM tris(hydroxymethyl)aminomethane hydrochloride (Tris/HCl, Sigma, Germany, cat. no. T5941) pH 7.5, 300 mM sodium chloride (NaCl, Sigma, Germany, cat. no. S7653), 5% (w/v) glycerol (Sigma, Germany, cat. no. G5516), 3 mM DTT dithiotreitol (DTT, Sigma, Germany, cat. no. D9779)) per gram wet weight cell pellet. Lysates were prepared by disruption of cells with a sonifier and subsequent clearing by centrifugation at 38000 g for 45 min at 4° C.
The lysate was applied to a GSTPrep FF 16/10 column (Amersham, Sweden, cat. no. 17-5234-01) equilibrated with lysis buffer. Removal of unbound material was with 3 column volumes (CV) lysis buffer. Elution was with 2 CV of elution buffer (50 mM Tris/HCl pH 7.5, 300 mM NaCl, 5% (w/v) glycerol, 20 mM glutathione (Sigma, Germany, cat. no. G4251)). Peak fractions were pooled and the protein transferred into storage buffer (50 mM Tris/HCl pH 7.5, 200 mM NaCl, 0.1 mM ethylene glycolbis(2-aminoethylether)-N,N,N′,N′-tetraacetic acid (EGTA, Aldrich, Germany, cat. no. 23, 453-2), 1 mM DTT, 10% (w/v) glycerol, 0.5 M sucrose (Sigma, Germany, cat. no. S0389) by gel filtration on a PD10 desalting column (Amersham, Sweden, cat. no. 17-0851-01). Aliquots were shock frozen in liquid nitrogen and stored at −80° C.
Activation of Mnk1 and Mnk2a was at a concentration of 2.5 μM of either purified GST-Mnk1 or GST-Mnk2a by incubation with 150 nM pre-activated NHis-ERK2 (see ERK2 assay for preparation) and 50 μM adenosine triphosphate (ATP, Sigma, cat. no. A2699) in a buffer comprising 20 mM N-(2-hydroxyethyl)piperazine-N′-(2-ethanesulfonic acid) (HEPES, Fluka, Germany, cat. no 54459)/potassium hydroxide (KOH, Roth, Germany, cat. no 6751.1) pH 7.4, 10 mM magnesium chloride (MgCl2, Sigma, Germany, cat. no. M2670), 0.25 mM DTT, 0.05% (w/v) polyoxyethylene 20 stearylether (Brij 78, Sigma, Germany, cat. no. P4019) (HMDB buffer) for 45 min at 30° C. […]

Going from `CN[C@H]1CCC[C@H](Oc2cc(F)ccc2Nc2ncnc3sc(C(N)=O)c(C)c23)C1` (relative stereo) [Example 18, 4-(4-Fluoro-2-(trans-3-(N-methylamino)cyclohexyloxy)phenylamino)-5-methylthieno[2,3-d]pyrimidine-6-carboxamide] to `CN[C@H]1CC[C@H](Oc2cc(F)ccc2Nc2ncnc3sc(C(N)=O)c(C)c23)CC1` [Example 12, 4-(4-Fluoro-2-(trans-4-(methylamino)cyclohexyloxy)phenylamino)-5-methylthieno[2,3-d]pyrimidine-6-carboxamide], the IC50 falls from 36 nM to 7 nM (5.1-fold).

`COC(=O)c1sc2ncnc(Nc3ccc(F)cc3OC3C[C@@H](O)C[C@H](O)C3)c2c1C` (relative stereo) [Example 30.1] and `Cc1c(C(N)=O)sc2ncnc(Nc3ccc(F)cc3OC3C[C@@H](O)[C@H](O)C3)c12` (relative stereo) [Example 211] are within 1.5-fold of each other in IC50: 9 nM for the first, 8 nM for the second.

`CO[C@H]1CCC[C@@H](Oc2ncccc2Nc2ncnc3sc(C(=O)NCC4COCCN4)c(C)c23)C1` (relative stereo) [Example 120] and `CO[C@@H]1CCC[C@@H](Oc2ncccc2Nc2ncnc3sc(C(=O)NCC4CNCCO4)c(C)c23)C1` (relative stereo) [Example 140] are within 1.5-fold of each other in IC50: 33 nM for the first, 49 nM for the second.

Compared with `CO[C@H]1CCC[C@@H](Oc2ncccc2Nc2ncnc3sc(C(=O)NCC(C)O)c(C)c23)C1` (relative stereo) [Example 125], `CO[C@@H]1CCC[C@@H](Oc2ncccc2Nc2ncnc3sc(C(=O)NCCO)c(C)c23)C1` (relative stereo) [Example 143] is 1.8-fold higher in IC50: 44 nM for the first, 77 nM for the second. The first is the more potent here.

Compared with `CO[C@H]1CCC[C@@H](Oc2ncccc2Nc2ncnc3sc(C(=O)NCCCO)c(C)c23)C1` (relative stereo) [Example 126], `CC(=O)N[C@H]1CC[C@H](Oc2cc(F)ccc2Nc2ncnc3sc(C(=O)NCCCN(C)C)c(C)c23)CC1` [Example 6] is 3.3-fold lower in IC50: 23 nM for the first, 7 nM for the second.

First: Cc1c(C(N)=O)sc2ncnc(Nc3ccc(F)cc3O[C@@H]3CC[C@@H](O)[C@H]3O)c12 (relative stereo) [Example 221]
Second: Cc1c(C(N)=O)sc2ncnc(Nc3ccc(F)cc3O[C@@H]3CC[C@H](O)[C@@H]3O)c12 (relative stereo) [Example 223]
The IC50 of the first is 1.8-fold lower: 10 nM for the first, 18 nM for the second.

Compared with `Cc1c(C(=O)NCCCN(C)C)sc2ncnc(Nc3ccc(F)cc3O[C@@H]3CC[C@@H](O)[C@H]3O)c12` (relative stereo) [Example 222], `CC(=O)N(C)[C@H]1CC[C@H](Oc2cc(F)ccc2Nc2ncnc3sc(C(=O)NCCCN(C)C)c(C)c23)CC1` [Example 8, N-(3-(dimethylamino)propyl)-4-(4-fluoro-2-(trans-4-(N-methylacetamido)cyclohexyloxy)phenylamino)-5-methylthieno[2,3-d]pyrimidine-6-carboxamide] is 3.4-fold lower in IC50: 41 nM for the first, 12 nM for the second.

Compared with `Cc1c(C(N)=O)sc2ncnc(Nc3ccc(F)cc3O[C@@H]3CCC[C@@H]3O)c12` (relative stereo) [Example 224], `Cc1c(C(=O)O)sc2ncnc(Nc3ccc(F)cc3O[C@@H]3CCCC[C@@H]3O)c12` (single isomer, unassigned) [Example 258, 4-[4-fluoro-2-(cis-2-hydroxy-cyclohexyloxy)-phenylamino]-5-methyl-thieno[2,3-d]pyrimidine-6-carboxylic acid] is 14-fold higher in IC50: 8 nM for the first, 110 nM for the second.

Compared with `COC(=O)[C@H](CO)NC(=O)c1sc2ncnc(Nc3ccc(F)cc3O[C@H]3CC[C@H](OC)CC3)c2c1C` (relative stereo) [Example 272, 2-({-4-[4-Fluoro-2-(trans-4-methoxy-cyclohexyloxy)-phenylamino]-5-methyl-thieno[2,3-d]pyrimidine-6-carbonyl}-amino)-3-hydroxy-propionic acid methyl ester], `COC(=O)N(C)[C@H]1CC[C@H](Oc2cc(F)ccc2Nc2ncnc3sc(C(N)=O)c(C)c23)CC1` [Example 11, Methyl trans-4-(2-(6-carbamoyl-5-methylthieno[2,3-d]pyrimidin-4-ylamino)-5-fluorophenoxy)cyclohexyl(methyl)carbamate] is 4.7-fold lower in IC50: 33 nM for the first, 7 nM for the second.

First: COC(=O)c1sc2ncnc(Nc3ccc(F)cc3O[C@@H]3CCCC[C@@H]3O)c2c1C (single isomer, unassigned) [Example 256, 4-[4-fluoro-2-(cis-2-hydroxy-cyclohexyloxy)-phenylamino]-5-methyl-thieno[2,3-d]pyrimidine-6-carboxylic acid methyl ester]
Second: COC(=O)c1sc2ncnc(Nc3ccc(F)cc3O[C@H]3CCCC[C@H]3O)c2c1C (single isomer, unassigned) [Example 257, 4-[4-fluoro-2-(cis-2-hydroxy-cyclohexyloxy)-phenylamino]-5-methyl-thieno[2,3-d]pyrimidine-6-carboxylic acid methyl ester]
The IC50 of the first is 9.1-fold higher: 1290 nM for the first, 141 nM for the second.

`Cc1c(C(=O)NC2CCN(C)CC2)sc2ncnc(Nc3ccc(F)cc3OC3CCCCC3O)c12` (single isomer, unassigned) [Example 259] and `Cc1c(C(=O)NCCCN2CCCC2)sc2ncnc(Nc3ccc(F)cc3OC3CCCCC3O)c12` (single isomer, unassigned) [Example 260] are within 1.5-fold of each other in IC50: 346 nM for the first, 255 nM for the second.

Going from `Cc1c(C(=O)O)sc2ncnc(Nc3ccc(F)cc3O[C@H]3CCCC[C@H]3O)c12` (single isomer, unassigned) [Example 262, 4-[4-fluoro-2-(cis-2-hydroxy-cyclohexyloxy)-phenylamino]-5-methyl-thieno[2,3-d]pyrimidine-6-carboxylic acid] to `Cc1c(C(=O)NC2CCN(C)CC2)sc2ncnc(Nc3ccc(F)cc3OC3CCCCC3O)c12` (single isomer, unassigned) [Example 265], the IC50 rises from 23 nM to 54 nM (2.3-fold). The first is the more potent here.

Going from `Cc1c(C(N)=O)sc2ncnc(Nc3ccc(F)cc3O[C@H]3CC[C@H](NS(C)(=O)=O)CC3)c12` [Example 3, 4-[4-Fluoro-2-(trans-4-methanesulfonylamino-cyclohexyloxy)-phenylamino]-5-methyl-thieno[2,3-d]pyrimidine-6-carboxylic acid amide] to `CC(=O)N[C@H]1CC[C@H](Oc2cc(F)ccc2Nc2ncnc3sc(C(N)=O)c(C)c23)CC1` [Example 5, 4-(2-(trans-4-acetamidocyclohexyloxy)-4-fluorophenylamino)-5-methylthieno[2,3-d]pyrimidine-6-carboxamide], the IC50 falls from 10 nM to 3 nM (3.3-fold).

Going from `Cc1c(C(N)=O)sc2ncnc(Nc3ccc(F)cc3O[C@H]3CC[C@H](N(C)S(C)(=O)=O)CC3)c12` [Example 4, 4-(4-Fluoro-2-(trans-4-(N-methylmethylsulfonamido)cyclohexyloxy)phenylamino)-5-methylthieno[2,3-d]pyrimidine-6-carboxamide] to `Cc1c(C(N)=O)sc2ncnc(Nc3ccc(F)cc3O[C@H]3CC[C@@H](N(C)S(C)(=O)=O)CC3)c12` [Example 9, 4-(4-Fluoro-2-(cis-4-(N-methylmethylsulfonamido)cyclohexyloxy)phenylamino)-5-methylthieno[2,3-d]pyrimidine-6-carboxamide], the IC50 rises from 23 nM to 5900 nM (260-fold). The first is the more potent here.

First: CC(=O)N(C)[C@H]1CC[C@H](Oc2cc(F)ccc2Nc2ncnc3sc(C(N)=O)c(C)c23)CC1 [Example 7]
Second: CC(=O)N(C)[C@H]1CC[C@@H](Oc2cc(F)ccc2Nc2ncnc3sc(C(N)=O)c(C)c23)CC1 [Example 10]
The IC50 of the first is 360-fold lower: 7 nM for the first, 2500 nM for the second.
